In ChEMBL document CHEMBL4622855, “Secondary metabolites from Isodon ternifolius (D. Don) Kudo and their anticancer activity as DNA topoisomerase IB and Tyrosyl-DNA phosphodiesterase 1 inhibitors” (Bioorg Med Chem, 2020):
pIC50: −log10 of the molar value. Active and inactive are the calls of the source. The rule behind the calls is not given here.

How the values were obtained:
HCT-116 = test: Cytotoxicity against human HCT116 cells assessed as growth inhibition after 72 hrs by MTT assay; type: functional; settings: HCT-116, 72 h
[1] = biological target: T1, DNA topoisomerase I (Bos taurus) (UniProt F1MN93); test: Inhibition of calf thymus Top1 assessed as reduction in supercoiled pBR322 DNA relaxation at 100 uM measured after 30 mins by agarose gel electrophoresis relative to camptothecin
T1 sequence (whole entry): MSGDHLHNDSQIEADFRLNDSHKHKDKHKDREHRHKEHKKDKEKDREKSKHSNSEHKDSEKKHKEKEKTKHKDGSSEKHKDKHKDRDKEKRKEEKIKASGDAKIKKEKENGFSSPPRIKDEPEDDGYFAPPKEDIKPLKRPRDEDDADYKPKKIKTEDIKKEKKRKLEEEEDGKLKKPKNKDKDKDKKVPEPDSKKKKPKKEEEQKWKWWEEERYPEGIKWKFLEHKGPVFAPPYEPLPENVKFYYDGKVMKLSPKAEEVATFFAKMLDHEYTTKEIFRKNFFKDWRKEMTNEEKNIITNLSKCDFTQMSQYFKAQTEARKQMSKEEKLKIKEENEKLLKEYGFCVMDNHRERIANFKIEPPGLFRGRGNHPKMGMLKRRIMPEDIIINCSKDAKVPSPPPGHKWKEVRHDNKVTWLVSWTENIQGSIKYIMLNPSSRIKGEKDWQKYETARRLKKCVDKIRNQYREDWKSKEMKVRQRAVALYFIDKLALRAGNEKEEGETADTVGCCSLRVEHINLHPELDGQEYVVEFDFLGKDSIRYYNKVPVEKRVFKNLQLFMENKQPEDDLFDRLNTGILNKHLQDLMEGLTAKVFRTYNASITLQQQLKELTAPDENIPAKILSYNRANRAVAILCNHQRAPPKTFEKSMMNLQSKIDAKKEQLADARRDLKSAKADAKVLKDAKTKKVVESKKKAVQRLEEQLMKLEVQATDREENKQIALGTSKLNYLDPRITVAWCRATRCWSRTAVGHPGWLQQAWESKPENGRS

MCF7 [2] = test: Cytotoxicity against human MCF7 cells assessed as reduction in cell viability after 72 hrs by MTT assay; type: functional; settings: MCF7, 72 h
A549 = test: Cytotoxicity against human A549 cells assessed as growth inhibition after 72 hrs by MTT assay; type: functional; settings: A549, 72 h
[3] = biological target: Tyrosyl-DNA phosphodiesterase 1 (Homo sapiens, UniProt Q9NUW8); test: Inhibition of TDP1 (unknown origin) expressed in Escherichia coli BL21 (DE3) using 5'-FAM-AGGATCTAAAAGACTT-BHQ-3' as substrate preincubated for 30 mins followed by substrate addition by fluorescence assay
MCF7 [4] = test: Synergistic antiproliferative activity against human MCF7 cells assessed as combination index at 12.5 to 50 uM after 72 hrs in presence of TOP1 inhibitor topotecan by MTT assay; type: functional
[5] = biological target: T1, DNA topoisomerase I (Bos taurus); test: Inhibition of calf thymus Top1-mediated supercoiled pBR322 DNA cleavage assessed as nicked DNA content at 25 uM measured after 30 mins by ethidium bromide staining agarose gel electrophoresis; design: scale not given: the % may be the effect or the level left
[6] = biological target: T1, DNA topoisomerase I (Bos taurus); test: Inhibition of calf thymus Top1-mediated supercoiled pBR322 DNA cleavage assessed as nicked DNA content at 50 uM measured after 30 mins by ethidium bromide staining agarose gel electrophoresis; design: scale not given: the % may be the effect or the level left
[7] = biological target: T1, DNA topoisomerase I (Bos taurus); test: Inhibition of calf thymus Top1 assessed as reduction in supercoiled pBR322 DNA relaxation measured after 30 mins by agarose gel electrophoresis
[8] = biological target: T1, DNA topoisomerase I (Bos taurus); test: Inhibition of calf thymus Top1 assessed as reduction in Top1-supercoiled pBR322 DNA covalent cleavage formation at 25 to 50 uM measured after 30 mins by electrophoretic mobility shift assay
MCF7 [9] = test: Induction of DNA damage in human MCF7 cells assessed as increase in gammaH2AX foci formation up to 9 uM measured after 12 hrs by immunofluorescence assay; type: functional, cell-based
MCF7 [10] = test: Synergistic antiproliferative activity against human MCF7 cells assessed as combination index at 50 to 100 uM after 72 hrs in presence of TOP1 inhibitor topotecan by MTT assay; type: functional
MCF7 [11] = test: Induction of DNA damage in human MCF7 cells assessed as increase in gammaH2AX foci formation at 0.5 uM measured after 12 hrs by immunofluorescence assay; type: functional, cell-based

Sequence of Tyrosyl-DNA phosphodiesterase 1 (Q9NUW8 whole entry): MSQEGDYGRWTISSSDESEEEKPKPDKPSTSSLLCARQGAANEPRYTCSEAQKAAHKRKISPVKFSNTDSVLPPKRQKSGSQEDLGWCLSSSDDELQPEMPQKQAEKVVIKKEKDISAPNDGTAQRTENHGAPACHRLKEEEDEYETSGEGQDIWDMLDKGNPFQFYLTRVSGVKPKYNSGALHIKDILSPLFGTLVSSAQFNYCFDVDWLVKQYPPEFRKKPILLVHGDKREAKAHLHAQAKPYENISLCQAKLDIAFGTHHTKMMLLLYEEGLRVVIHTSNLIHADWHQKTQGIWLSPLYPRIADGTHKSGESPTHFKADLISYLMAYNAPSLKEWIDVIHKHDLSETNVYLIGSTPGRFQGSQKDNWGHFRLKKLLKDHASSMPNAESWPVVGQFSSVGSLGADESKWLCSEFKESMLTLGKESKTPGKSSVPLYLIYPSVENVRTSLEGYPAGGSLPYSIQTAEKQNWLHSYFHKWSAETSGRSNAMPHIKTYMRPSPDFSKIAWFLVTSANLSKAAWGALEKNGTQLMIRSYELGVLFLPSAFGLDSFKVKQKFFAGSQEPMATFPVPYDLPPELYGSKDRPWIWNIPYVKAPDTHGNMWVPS

Row | SMILES | GI50 (HCT-116) [µM] | inhibition [1] [%] | GI50 (MCF7 [2]) [µM] | GI50 (A549) [µM] | pIC50 [3] | CI (MCF7 [4]) | Activity [5] [%] | Activity [6] [%] | inhibition [7] | inhibition [8] | Activity (MCF7 [9]) | CI (MCF7 [10]) | Activity (MCF7 [11])
1 | CC(=O)O[C@H]1CC[C@]2(C)[C@H]3CC=C4[C@H]5[C@](C(=O)O)(CC[C@@H](C)[C@@]5(C)O)CC[C@@]4(C)[C@]3(C)CC[C@H]2C1(C)C | > 100 | 0 | > 100 | > 100 | < 4.00 | – | – | – | – | – | – | – | –
2 | CC1(C)CC[C@]2(C(=O)O)CC[C@]3(C)C(=CC[C@@H]4[C@@]5(C)CC[C@H](O)C(C)(C)[C@@H]5CC[C@]43C)[C@@H]2C1 [OLEANOLIC_ACID] | > 100 | 0 | > 100 | > 100 | – | – | – | – | – | – | – | – | –
3 | CC1(C)CC[C@]2(C(=O)O)CC[C@]3(C)C(=CC[C@@H]4[C@@]5(C)C[C@@H](O)[C@@H](O)C(C)(C)[C@@H]5CC[C@]43C)[C@@H]2C1 | 51 | 30 to 59 | > 100 | > 100 | < 4.00 | – | – | – | – | – | – | – | –
4 | C[C@H]1[C@H](C)CC[C@]2(C(=O)O)CC[C@]3(C)C(=CC[C@@H]4[C@@]5(C)C[C@@H](O)[C@H](O)C(C)(C)[C@@H]5CC[C@]43C)[C@H]12 [COROSOLIC ACID] | > 100 | < 29 | 62 | > 100 | < 4.00 | – | – | – | – | – | – | – | –
5 | C=C1C(=O)O[C@H]2C3=CC[C@@H]4[C@](C)(CO)CCC[C@@]4(C)[C@@H]3CC[C@@H]12 | 42 | 30 to 59 | 40 | 51 | – | – | – | – | – | – | – | – | –
6 | CC1(C)CC[C@]2(C(=O)O)CC[C@]3(C)C(=CC[C@@H]4[C@@]5(C)C[C@@H](O)[C@@H](O)[C@@](C)(CO)[C@@H]5CC[C@]43C)[C@@H]2C1 | > 100 | 0 | > 100 | > 100 | – | – | – | – | – | – | – | – | –
7 | CC1(C)CC[C@]2(C(=O)O)CC[C@]3(C)C(=CC[C@@H]4[C@@]5(C)C[C@@H](O)[C@H](O)[C@](C)(CO)[C@@H]5CC[C@]43C)[C@@H]2C1 | 29 | 60 to 89 | 14 | 22 | – | – | – | – | – | – | – | – | –
8 | CC(C)c1cc2c(cc1O)[C@@]1(C)CCC[C@](C)(CO)[C@@H]1CC2 | 51 | 30 to 59 | 92 | 91 | < 4.00 | – | – | – | – | – | – | – | –
9 | CC(=O)O[C@H]1CC[C@]2(C)[C@H]3CC=C4[C@@H]5[C@@H](C)[C@H](C)CC[C@]5(C(=O)O)CC[C@@]4(C)[C@]3(C)CC[C@H]2C1(C)C [O-ACETYLURSOLIC ACID] | 21 | > 90 | 6.5 | 48 | – | – | – | – | – | – | – | – | –
10 | C[C@@H]1CC[C@@]23CC[C@]4(C)[C@@](C=C[C@@H]5[C@@]6(C)CC[C@H](O)C(C)(C)[C@@H]6CC[C@]54C)(OC2=O)C3[C@H]1C (some centres not stated) | > 100 | 0 | > 100 | > 100 | – | – | – | – | – | – | – | – | –
11 | CC(C)c1ccc2c(c1O)CC[C@@H]1[C@@](C)(CO)CCC[C@@]21C | > 100 | 0 | > 100 | > 100 | < 4.00 | – | – | – | – | – | – | – | –
12 | C[C@@H]1CC[C@]2(C(=O)O)CC[C@]3(C)C(=CC[C@@H]4[C@@]5(C)C[C@@H](O)OCC(C)(C)[C@@H]5CC[C@]43C)[C@@H]2[C@]1(C)O | 23 | < 29 | > 100 | > 100 | < 4.00 | – | – | – | – | – | – | – | –
13 | COc1cc(O)ccc1/C=C/C(=O)c1ccc(O)cc1 [ECHINATIN] | 64 | 30 to 59 | 43 | 36 | 4.35 | <0.3 | – | – | – | – | – | – | –
14 | C[C@H]1[C@H](C)CC[C@]2(C(=O)O)CC[C@]3(C)C(=CC[C@@H]4[C@@]5(C)CCC(=O)C(C)(C)[C@@H]5CC[C@]43C)[C@H]12 [URSONIC ACID] | 5.3 | > 90 | 12 | 57 | – | – | 11 | 9 | Dose-dependent effect | Active | inactive | – | –
15 | O=C(/C=C/c1ccc(O)cc1)c1ccc(O)cc1O [ISOLIQUIRITIGENIN] | 39 | 30 to 59 | > 100 | 87 | 4.26 | – | – | – | – | – | – | <1 | –
16 | CC(C)c1cc2c(cc1O)[C@]1(C)CCC[C@](C)(C(=O)O)[C@H]1CC2 | 68 | 30 to 59 | 60 | 36 | < 4.00 | – | – | – | – | – | – | – | –
17 | CC[C@@]1(O)C(=O)OCc2c1cc1n(c2=O)Cc2cc3ccccc3nc2-1 | – | – | – | – | – | – | 16 | 18 | – | – | – | – | Active
18 | COc1cc(/C=C/C(=O)O[C@H]2[C@H](O)C[C@]3(C)[C@H]4CC=C5[C@@H]6CC(C)(C)CC[C@]6(C(=O)O)CC[C@@]5(C)[C@]4(C)CC[C@H]3C2(C)C)ccc1O | 22 | > 90 | 67 | 59 | < 4.00 | – | 9 | 10 | Dose-dependent effect | Active | – | – | –
19 | C=C1C(=O)O[C@H]2C3=CC[C@@H]4C(C)(C)C(=O)CC[C@@]4(C)[C@@H]3CC[C@@H]12 | 31 | 60 to 89 | 15 | 51 | < 4.00 | – | – | – | – | – | – | – | –
20 | CC(C)c1ccc(O)c2c1CC[C@H]1[C@@](C)(C(=O)O)CCC[C@]21C | 31 | 30 to 59 | 60 | 41 | < 4.00 | – | – | – | – | – | – | – | –
21 | CC1(C)CC[C@]2(C(=O)O)CC[C@]3(C)C(=CC[C@@H]4[C@@]5(C)C[C@H](O)[C@H](O)[C@@](C)(COC(C)(C)O)[C@@H]5CC[C@]43C)[C@@H]2C1 | 55 | 60 to 89 | 11 | 37 | < 4.00 | – | – | – | – | – | – | – | –
22 | CO[C@@H]1C[C@]2(C)[C@H]3CC=C4[C@H]5[C@](C(=O)O)(CC[C@@H](C)[C@@]5(C)O)CC[C@@]4(C)[C@]3(C)CC[C@H]2C(C)(C)CO1 | 37 | 30 to 59 | 31 | 63 | < 4.00 | – | – | – | – | – | – | – | –
23 | C[C@@H]1CC[C@]2(C(=O)O)CC[C@]3(C)C(=CC[C@@H]4[C@@]5(C)C[C@@H](O)[C@@H](O)C(C)(C)[C@@H]5CC[C@]43C)[C@@H]2[C@]1(C)O [EUSCAPHIC ACID] | 22 | > 90 | 41 | 43 | < 4.00 | – | – | – | – | – | – | – | –
24 | C=C1C(=O)O[C@H]2C3=CC[C@@H]4C(C)(C)[C@H](O)CC[C@@]4(C)[C@@H]3CC[C@@H]12 | 35 | 30 to 59 | 53 | 35 | < 4.00 | – | – | – | – | – | – | – | –
25 | C=C1C(=O)[C@]23C[C@H]1CC[C@H]2[C@]1(C)CC[C@@H](O)C(C)(C)[C@H]1C[C@@H]3O | 2.7 | 60 to 89 | 3.5 | 4.8 | < 4.00 | – | – | – | – | – | – | – | –
26 | C[C@H]1[C@H](C)CC[C@]2(CO)CC[C@]3(C)C(=CC[C@@H]4[C@@]5(C)CC[C@H](O)C(C)(C)[C@@H]5CC[C@]43C)[C@H]12 [UVAOL] | 37 | 30 to 59 | 93 | 45 | < 4.00 | – | – | – | – | – | – | – | –
